# What was measured:
# [1] = target: T1, 15-sLOX (Glycine max, UniProt P08170); test: LC-MS/MS of 15s-LOX oxidized samples (product profile); format: biochemical, Glycine max (soybean); settings: 0.1 mM substrate, 30 min reaction, room temperature
# T1 sequence (P08170 1-839): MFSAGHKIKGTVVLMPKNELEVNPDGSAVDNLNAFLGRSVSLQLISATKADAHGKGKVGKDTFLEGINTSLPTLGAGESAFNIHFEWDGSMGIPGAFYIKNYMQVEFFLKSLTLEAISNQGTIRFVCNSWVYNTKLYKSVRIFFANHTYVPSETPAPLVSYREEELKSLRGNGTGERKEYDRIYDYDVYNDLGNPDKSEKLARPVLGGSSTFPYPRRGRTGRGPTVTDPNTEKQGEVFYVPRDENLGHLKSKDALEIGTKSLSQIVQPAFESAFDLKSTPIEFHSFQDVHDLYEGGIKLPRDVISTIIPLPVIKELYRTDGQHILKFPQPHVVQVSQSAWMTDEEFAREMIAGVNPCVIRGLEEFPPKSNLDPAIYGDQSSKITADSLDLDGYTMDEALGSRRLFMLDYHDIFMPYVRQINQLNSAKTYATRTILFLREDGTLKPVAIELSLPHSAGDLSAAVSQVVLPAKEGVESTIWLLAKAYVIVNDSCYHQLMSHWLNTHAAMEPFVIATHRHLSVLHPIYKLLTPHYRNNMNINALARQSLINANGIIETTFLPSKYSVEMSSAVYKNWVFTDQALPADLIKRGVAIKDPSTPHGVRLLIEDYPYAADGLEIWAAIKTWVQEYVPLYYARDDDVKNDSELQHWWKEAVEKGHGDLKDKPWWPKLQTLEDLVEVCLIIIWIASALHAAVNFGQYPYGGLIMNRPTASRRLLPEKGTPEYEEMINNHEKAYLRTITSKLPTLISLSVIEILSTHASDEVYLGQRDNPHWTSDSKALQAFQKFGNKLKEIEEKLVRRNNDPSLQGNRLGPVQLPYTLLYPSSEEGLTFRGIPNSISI
# Experimental: In order to gain insights on the nature of the produced metabolites, LC-MS/MS analysis of the reaction products were carried out. To this end, the respective DHA variants (0.1 mM) were incubated in a 2 mL eppendorf tube with 10 µL 15-sLOX (4 mg/mL) in sodium borate buffer (50 mM, pH 9) for 30 min at room temperature and the reaction quenched by the addition of cold MeOH (760 µL). The hydroperoxides were reduced with the addition of aq. SnCl2 (50 µL, 5 mg/mL) and subsequently the mixture was centrifuged (16,100 ×g for 5 min). Water (2 mL) was added to the supernatant, followed by the dropwise addition of glacial acetic acid (40 µL). The products were purified by SPE using SepPak 200 mg C18 cartridges (3CC), according to published protocols. The methyl formate eluates were evaporated to dryness, dissolved in MeOH (0.5 mL) and stored at −80 °C until analysis. The resulting solution was diluted 1000 times with MeOH for LC-MS/MS measurements. To 120 µL water, 72 µL of MeOH, 4 µL of the diluted solution and 4 µL of an internal standard (15-HETE-d8, Leukotriene LTB4-d4 and DHA-d5) was added. The samples were loaded in a SIL-30AC autosampler and the analytes separated on a Kinetex 1.7 µm C18 100Å, 50 × 2.1 mm LC column as described. The detection of DHA metabolites was performed in selected ion monitoring mode using several traces in order to take the eventual loss of a deuterium atom into account. The following traces were used: m/z 327.2, 343.2, 359.2 and 375.2 for DHA and its metabolites, m/z 327.2, 328.2, 329.2, 344.2, 345.2, 360.2, 361.2, 376.2, 377.2 for D2-DHA, m/z 331.2, 345.3, 346.2, 361.2, 362.3, 363.2, 377.2, 378.2 and 379.2 for D4-DHA and m/z 337.2, 352.2, 353.2, 367.2, 368.2, 369.2, 383.2, 384.2 and 385.2 for D10-DHA. Tandem mass spectra were recorded as product ion scans. Quantification of the metabolites was done by calculating the area ratio between the analyte and the internal standard (DHA-d5 for non-hydroxylated, 15-HETE-d8 for mono-hydroxylated and LTB4-d4 for di-hydroxylated derivatives) using Multiquant version 3.0.2.
# [2] = target: T1, 15-sLOX; test: Kinetics parameters of 15s-LOX (UV 270 nm, Michaelis-Menten); format: biochemical, Glycine max (soybean); settings: monitored at 270 nm
# Experimental: The activity of 15-sLOX was monitored on a Beckman Coulter DU730 Life Sciences UV-visible spectrometer at a wavelength of 270 nm monitoring the conjugated triene structure in the dihydroxylation products. For the measurements a reaction mixture of DHA or deuterated DHA (0.02 mM; 0.04 mM; 0.1 mM and 0.2 mM) was prepared in 750 µL sodium borate buffer (50 mM, pH 9) by ultrasonification for 10 s. The reaction was subsequently initiated by the addition of 10 µL 15-sLOX (4 mg/mL) to make a total volume of 760 µL in a Hellma CEL2056 quartz cuvette with 1 cm path length (20 °C). The initial reaction rates (V(0)), derived from the recorded UV-absorbance using the law of Lambert-Beer (molar extinction coefficient = 40,000), were plotted against the respective DHA concentrations and fitted to Michaelis-Menten kinetics in GraphPad Prism 7.0. All V(0) values were determined in triplicate and the average of three independent experiments was plotted against the substrate concentrations to yield Michaelis-Menten kinetics.
Compound,pre-dominant product of 15-sLOX oxidation (LC-MS) [1],15s-LOX activity for the double hydroxylation product [2]
"[2H]C([2H])(/C=C\C/C=C\C/C=C\C/C=C\C/C=C\CC)/C=C\CCC(=O)O [D2-DHA, (6,6-D2)-DHA]","double oxygenation product 10S,17S-diHDHA",no substantial differences
"[2H]C([2H])(C=CCC=CCC=CCC=CCC)C=CC([2H])([2H])C=CCCC(=O)O [D4-DHA, (6,6,9,9-D4)-DHA]","double oxygenation product 10S,17S-diHDHA",no substantial differences
"CC/C=C\C/C=C\C/C=C\C/C=C\C/C=C\C/C=C\CCC(=O)O [Natural DHA, docosahexaenoic acid, reference compound]","double oxygenation product 10S,17S-diHDHA",no substantial differences

# Source: PMC6826779, “Bis-allylic Deuterated DHA Alleviates Oxidative Stress in Retinal Epithelial Cells” (Antioxidants, 2019)
